# Laboratory results reported in patent US20240082345A1, “PEPTIDE COMPOSITION FOR PREVENTION OR TREATMENT OF ALZHEIMER'S DISEASE” (priority 2020, published 2024).
# Non-standard residues stand in square brackets, D forms with d. Residues, ends and D or L forms follow the SMILES beside them.
# What was measured:
# 5XFAD mice [1] = assay: Alzheimer's dementia-related pathology in 5XFAD mice, immunofluorescence staining (4G8, Iba-1, NeuN); format: in vivo, mouse
# Experimental: (§1) Then, cognitive function experiments were performed on each mouse, and then the mouse brain was fixed by cardiac perfusion fixation. Thereafter, the removed mouse brain was secondarily fixed in a 4% PFA solution for 20 hours, and then immersed in a 30% sucrose solution. Subsequently, the mouse brains were frozen and sliced into a thickness of 30 μm.
# The effects of DD-S052 on beta-amyloid accumulation, microgliosis, and neuronal loss were confirmed using an immunofluorescence staining method.
# Specifically, in the case of immunofluorescence labeling, 4 to 5 coronal sections were obtained at subventricular zone (1.18 and 0.02 mm from bregma) and hippocampal formation (−1.58 and −3.80 mm from bregma) levels based on Paxinos and Franklin's “The Mouse Brain in Stereotaxic Coordinates.” Brain tissue was washed with PBS using the free-floating method in a Titramax 101 orbital shaker (Heidolph, Schwabach, Germany) and sections were incubated with PBS including 0.3% Triton X-100, 0.5 mg/mL bovine serum albumin (BSA) and primary antibodies as follows at 4° C. overnight: mouse anti-4G8 antibody (1:2,000; Cat. #800701, BioLegend, USA), mouse anti-NeuN antibody (1:100; Cat. #MAB377, Merck KGaA, Darmstadt, Germany), and goat anti-Iba-1 antibody (1:500; Cat. #ab5076, Abcam, Cambridge, UK).
# Before being incubated with the anti-4G8 antibody, brain sections were incubated with 70% formic acid for antigen retrieval for 20 minutes, washed three times with PBS for 5 minutes each, and then incubated with a secondary antibody at room temperature for 50 minutes, and fluorescence signals were observed. As the secondary antibodies, the following antibodies were used: donkey Alexa 488-conjugated anti-mouse IgG (1:200; Cat. #A21202, Thermo Fisher Scientific Inc.), donkey Alexa 488-conjugated anti-goat IgG (1:200; Cat. #A11055, Thermo Fisher Scientific Inc.), and donkey Alexa 594-conjugated anti-rat IgG (1:200; Cat. #A21209, Thermo Fisher Scientific Inc.). All antibodies were diluted with PBS including 0.3% Triton X-100.
# [2] = tested on: LPS-treated BV-2 cells (microglial cell line); assay: LPS-mediated cytokine production in BV-2 cells (qRT-PCR); format: cell-based; details: 20 ng/ml peptide + 2 ng/ml LPS co-treatment, 6 hours, vs LPS-treated cells (FIG. 3)
# Experimental: Microglial cell line BV-2 cells were co-treated with 20 ng/ml of peptide (DD-5052) according to the invention and 2 ng/ml of LPS and cultured for 6 hours. Subsequently, the mRNA expression levels of proinflammatory cytokines IL-1(3 and TNF-α were measured using quantitative real-time polymerase chain reaction (PCR).
# Specifically, total RNA was extracted from BV-2 cells using an RNA purification kit (Gene All, Seoul, Korea) according to the manufacturer's protocol. cDNA was synthesized using the Revert Aid First Strand cDNA Synthesis Kit (Thermo Scientific, Waltham, MA, USA) and qRT-PCR analysis was performed using the SYBR Green PCR Master Mix (Thermo Scientific, Waltham, MA, USA). The gene-specific primer sequences for IL-1(3 and TNF-α are shown in the following Table 4, and the mRNA levels of IL-1(3 and TNF-α were calculated relative to the control sample amount.
# 5XFAD mice [3] = assay: Cognitive function experiment (spontaneous alternation, total arm entry) in 5XFAD mice; format: in vivo, mouse; details: 5.5-month-old 5XFAD mice, 2 mg/kg i.p. every other day for 4 weeks
# Experimental: as §1
# The cognitive function experiment is a novel experiment based on the instinctive behavior of rodents with the will to explore new environments, and is an experiment to evaluate the spatial perception ability of mice to choose a path different from the one which mice chose immediately before in a maze, and scores are given by dividing spontaneous alternation (the ratio of choosing a different path from the path chosen immediately before) by the total number of passages passed (total arm entry). The total arm entry during the experiment becomes an index to evaluate whether all groups have similar motility and whether the experiment is performed normally, apart from spatial perception ability.
# 5XFAD mice [4] = assay: LPS-induced neuroinflammation in brains of 5XFAD Alzheimer's dementia mice, Iba-1 immunohistochemical staining; format: in vivo, mouse; details: 3-month-old 5XFAD mice, single dose 10 mg/kg + LPS 3 mg/kg, 48 hours, vs LPS+vehicle (FIG. 5B)
# Experimental: Since LPS causes different degrees of inflammatory response depending on the strain of animals to be administered, LPS origin and the like, the animals were co-administered a single dose of 3 mg/kg of LPS and 10 mg/kg of DD-5052, and then sacrificed 48 hours later, 5XFAD mice were treated with 3 mg/kg of LPS by referencing a document which confirms the mortality rate by treating 5XFAD mice with 3 mg/kg of LPS (Barton, S. M.; Janve, V. A.; McClure, R.; Anderson, A.; Matsubara, J. A.; Gore, J. C.; Pham, W., Lipopolysaccharide Induced Opening of the Blood Brain Barrier on Aging 5XFAD Mouse Model. J Alzheimers Dis 2019, 67, (2), 503-513.) and a document which confirms that microgliosis reaches its maximum value from day 2 after the administration of LPS (Kondo, S.; Kohsaka, S.; Okabe, S., Long-term changes of spine dynamics and microglia after transient peripheral immune response triggered by LPS in vivo. […] 48 hours after administration of LPS and DD-5052, mouse brains were removed by cardiac perfusion fixation (4% PFA). Thereafter, the removed mouse brain was secondarily fixed in 4% PFA for 20 hours, and then immersed in a 30% sucrose solution. Subsequently, the mouse brains were frozen and sliced into a thickness of 30
# tau K18 = molecular target: T1, tau K18 (Homo sapiens, UniProt P10636); assay: Thioflavin T (ThT) assay of tau aggregation; format: biochemical; details: 0.5 mg/mL tau K18, 0.1 mg/mL heparin, DTT, PBS pH 7.4, 21 hours incubation; 10-1000 μg/mL (FIG. 7)
# T1 construct: 0.5 mg/mL tau K18, 0.1 mg/mL heparin
# Experimental: Thioflavin T (ThT) assay was performed to investigate the effect of DD-S052 and PEGylated DD-S052 on tau aggregation. ThT is known to bind to (3-sheet-rich protein aggregates to produce fluorescence. Synthetic tau K18 was dissolved in PBS (pH 7.4) in order to induce tau aggregation. The polymerization of tau proteins was induced by preparing a solution including PBS (pH 7.4), 0.5 mg/mL tau K18, 0.1 mg/mL heparin and 100 ρ, M DTT. DD-5052 at various concentrations (10, 20, 40, 100, and 1000 μg/mL), a 100 ρ, M methylene blue (MB) solution (positive control), and PEGylated DD-5052 were incubated together with an aggregation mixture for 21 hours. After incubation, a ThT solution (15 ρ, M in a 50 mM glycine buffer, pH 8.9) was added to a 96-well plate containing the sample and the aggregation mixture, and the resulting mixture was incubated for 3 hours. The fluorescence intensity of ThT was measured using a SpectraMax iD3 Multi-Mode Microplate Reader (Molecular Devices, San Jose, CA, USA) at excitation and emission wavelengths of 440 and 484 nm and quantified.
# wild-type mice = assay: LPS-induced neuroinflammation (microgliosis) in brains of wild-type mice, Iba-1 immunohistochemical staining; format: in vivo, mouse
# Experimental: Sections were incubated in 1% H2O2 for 15 minutes, and then put into a solution in which a mouse […] was diluted 1:400, and incubated at 4° C. overnight. After incubation with a biotinylated secondary antibody (diluted 1:200, Vector Laboratories, Inc., Burlingame, CA, USA) at room temperature for 1 hour, the sections were incubated with an avidin-biotin-peroxidase complex (diluted 1:100, vector) for 1 hour. Thereafter, 0.02% 3,3′-diaminobenzidine and 0.01% H2O2 were reacted for about 3 minutes. After each incubation stage, the sections were washed three times with PBS. Finally, the sections were mounted on gelatin-coated slides, and dehydrated while increasing an alcohol concentration and cleared in xylene.
# Experiments were designed as illustrated in FIG. 4A to confirm microglia in the brains of wild-type mice, and immunohistochemical staining was performed using a goat-anti Iba-1 antibody (Ab5076,1:500) against Iba-1 which is a marker for microglia. Three-month-old wild-type mice were intraperitoneally injected (i.p.) with LPS (30 mg/kg/day)+vehicle (Hartmann dex) or DD-S052 (30 mg/kg/day)+LPS (30 mg/kg/day), and sacrificed 6 hours after the last injection of LPS. In this case, LPS and DD-S052 were loaded in separate syringes and injected separately into the right and left abdomen, respectively, and LPS was administered, and then DD-S052 was administered approximately 1 minute later. The half-life of LPS in mouse blood was approximately 2 to 4 minutes. 6 hours after administration of LPS and DD-S052, mouse brains were removed by cardiac perfusion fixation (4% PFA). Thereafter, the removed mouse brain was secondarily fixed in 4% PFA for 20 hours, and then immersed in a 30% sucrose solution. Subsequently, the mouse brains were frozen and sliced into a thickness of 30 μm.
# Thereafter, immunohistochemical staining for Iba-1 was performed by the method described in Example 1-2 in order to confirm microglia in the mouse hippocampus, and the results are shown in FIG. 4B.
# Microglia were confirmed in the substantia nigra pars compacta (SNc) by performing immunohistochemical staining for Iba-1. Wild-type mice were treated with LPS and DD-5052 in the same manner as in Example 5-1.
# [5] = Artificial membrane permeation test simulating the blood-brain barrier (PAMPA-096), LC-MS / ESI-FT-ICR-MS; format: in vitro ADME; details: for MS peak intensity, Before / LogPe: 100 μg/ml peptide; for LogPe: 18 hr, room temperature, PBS; for MS peak intensity, Acceptor / MS peak intensity, Donor: after 18 hr
# Experimental: In order to confirm whether the peptide DD-S052 of the present invention passes through the blood-brain barrier (BBB), an artificial membrane permeation test simulating the blood-brain barrier was performed using a parallel artificial membrane permeability assay kit (PAMPA-096; BioAssay Systems).
# Analysis conditions are shown in the following Table 5, and analysis was performed by liquid chromatography-mass spectrometry (LC-MS).
# Quantitative analysis was performed using electrospray ionization coupled to Fourier transform ion cyclotron resonance mass spectrometry (ESI-FT-ICR-MS), and the analysis conditions are shown in the following Table 6.
# The intensity value of a peak corresponding to the test material was used according to the Log Pe function described in an existing document (Evaluation of the reproducibility of Parallel Artificial Membrane Permeation Assays PAMPA, Sigma Aldrich), and the value calculated by the Log Pe function was used to predict the degree of permeation by referencing an existing document (Brian. J et al. Predicting a Drug's Membrane Permeability: A Computational Model Validated With in Vitro Permeability Assay Data. J Phys Chem B. 2017 May 25;121(20):5228-5237).
# T1 sequence (P10636 561-685 limits assumed): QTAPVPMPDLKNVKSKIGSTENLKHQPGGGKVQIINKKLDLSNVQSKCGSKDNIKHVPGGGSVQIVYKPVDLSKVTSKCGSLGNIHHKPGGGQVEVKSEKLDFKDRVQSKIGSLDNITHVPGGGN
compound,measurement,setting,value
"CC(C)C[C@@H](NC(=O)[C@H](N)CCCCN)C(=O)N[C@H](CCCNC(=N)N)C(=O)N[C@@H](C(=O)N[C@H](CCCCN)C(=O)N[C@H](CC(C)C)C(=O)N[C@H](CCCNC(=N)N)C(=O)N[C@H](CCCNC(=N)N)C(=O)N[C@H](Cc1ccc(O)cc1)C(=O)N[C@H](CC(C)C)C(=O)N[C@H](CCCNC(=N)N)C(N)=O)C(C)C [DD-S052, KLRVKLRRYLR-NH2 (AcOH)] (H-[dK][dL][dR][dV][dK][dL][dR][dR][dY][dL][dR]-NH2; N-terminus assumed)",number of NeuN(+) cells (neuronal loss),5XFAD mice [1]; 2 mg/kg i.p. every other day for 4 weeks,increased
same,4G8(+) region (beta-amyloid accumulation),5XFAD mice [1]; 2 mg/kg i.p. every other day for 4 weeks (FIG. 6C),reduced
same,number of Iba-1(+) cells (microgliosis),5XFAD mice [1]; 2 mg/kg i.p. every other day for 4 weeks (FIG. 6D),reduced
same,mRNA expression of IL-1(3 induced by LPS),[2],suppressed
same,mRNA expression of TNF-α induced by LPS,[2],suppressed
same,total arm entry,"5XFAD mice [3]; 8-minute session, vs vehicle-treated 5XFAD, no significance between groups",increased
same,spontaneous alternation,5XFAD mice [3]; vs vehicle-treated 5XFAD (FIG. 6B),increased
same,Iba-1(+) microglia in cerebral cortex and hippocampus,5XFAD mice [4],decreased
same,fluorescence intensity of thioflavin T (ThT) (tau K18 aggregation),tau K18,reduced
same,microglial morphology in hippocampus,"wild-type mice; 3-month-old wild-type mice, 30 mg/kg/day i.p. + LPS 30 mg/kg/day i.p., 6 hours after last LPS (FIG. 4B)",tendency to change from an amoeboid shape to a ramified shape
same,number of Iba-1-positive cells in hippocampus,"wild-type mice; 3-month-old wild-type mice, 30 mg/kg/day i.p. + LPS 30 mg/kg/day, vs LPS+vehicle (Hartmann dex), p<0.001 (FIG. 4C)",remarkably decreased
same,microglial morphology in substantia nigra pars compacta (SNc),"wild-type mice; wild-type mice, 30 mg/kg/day i.p. + LPS 30 mg/kg/day (FIG. 4D)",tendency to change from an amoeboid shape to a ramified shape
same,Iba-1(+) microglia in the SNc,"wild-type mice; wild-type mice, 30 mg/kg/day i.p. + LPS 30 mg/kg/day, vs LPS+vehicle (FIG. 4D)",tended to decrease
same,"MS peak intensity, Before",[5]; peak at 375 m/z,1829478400
same,LogPe,[5]; peak at 375 m/z,−5.405
same,"MS peak intensity, Acceptor",[5]; peak at 375 m/z,717305173
same,"MS peak intensity, Donor",[5]; peak at 375 m/z,909677952
same,"MS peak intensity, Before",[5]; peak at 512 m/z,1667509760
same,LogPe,[5]; peak at 512 m/z,−5.362
same,"MS peak intensity, Acceptor",[5]; peak at 512 m/z,717488192
same,"MS peak intensity, Donor",[5]; peak at 512 m/z,867968256
"EG-KLRVKLRRYLR-NH2 (AcOH) (not fully specified; N-terminal PEG, C-terminal amide, acetate salt; DD-S052P; BINDING (11) amine group (NH2) is added to C-terminus of polypeptide.; SITE (9) trifluoroacetic acid (TFA) at a terminus of the 9th amino acid from the N terminus of a peptide is substituted with an acetate salt.; SITE (1) peptide N-terminus PEGylation)",fluorescence intensity of thioflavin T (ThT) (tau K18 aggregation),tau K18,reduced
